Test results: patent US20210317099A1, “SAFER, POTENT, AND FAST ACTING ANTIMICROBIAL AGENTS” (Purdue Research Foundation, priority 2020, published 2021)
Converted amounts (≈) assume the structure as drawn. Like-named read-outs stand apart in the source and are kept apart here.

How the values were obtained:
[1] = test system: S. aureus NRS 107; test: MIC, Gram-positive panel; format: cell-based; conditions: Staphylococcus aureus, NRS107
Procedure: (§1) Next, the spectrum of antibacterial activity of compounds 144, 148, 149, 151, 155, 158, and 187 was examined against a panel of clinically relevant Gram-positive bacterial pathogens including methicillin-resistant Staphylococcus aureus (MRSA), vancomycin-resistant Staphylococcus aureus (VRSA), vancomycin-resistant Enterococcus faecalis and Enterococcus faecium (VRE), and Streptococcus pneumoniae. Bacterial strains were grown aerobically overnight on tryptone soya agar plates at 37° C. Afterwards, a bacterial solution equivalent to 0.5 McFarland standard was prepared and diluted in cation-adjusted Mueller-Hinton broth (CAMHB) (for staphylococci). Enterococci and Streptococci were diluted in tryptone soya broth (TSB) to achieve a bacterial concentration of about 5×10^5 CFU/mL and seeded in 96-well plates. Compounds and control drugs were added in the first row of 96-well plates and serially diluted with media containing bacteria. Plates were then, incubated aerobically at 37° C. for 18-20 hours (except for S. pneumoniae, which was incubated at 37° C. in presence of 5% CO2 for 18-20 hours).

[2] = test system: VRSA 12; test: MIC, Gram-positive panel; format: cell-based; conditions: Staphylococcus aureus
Procedure: as §1

[3] = test system: MRSA NRS 385; test: MIC, Gram-positive panel; format: cell-based; conditions: Staphylococcus aureus
Procedure: as §1

[4] = test system: S. pneumoniae ATCC 51916; test: MIC, Gram-positive panel; format: cell-based; conditions: Streptococcus pneumoniae, ATCC51916
Procedure: as §1

[5] = test system: VRSA 10; test: MIC, Gram-positive panel; format: cell-based; conditions: Staphylococcus aureus
Procedure: as §1

[6] = test system: MRSA NRS 386; test: MIC, Gram-positive panel; format: cell-based; conditions: Staphylococcus aureus
Procedure: as §1

[7] = test system: S. aureus ATCC 6538; test: MIC, Gram-positive panel; format: cell-based; conditions: Staphylococcus aureus, ATCC6538
Procedure: as §1

[8] = test system: Methicillin-resistant S. epidermidis NRS101; test: MIC, Gram-positive panel; format: cell-based; conditions: Staphylococcus epidermidis
Procedure: as §1

[9] = test system: Methicillin-resistant S. pneumoniae ATCC 700677; test: MIC, Gram-positive panel; format: cell-based; conditions: Streptococcus pneumoniae, ATCC700677
Procedure: as §1

[10] = test system: MRSA NRS 123; test: MIC, Gram-positive panel; format: cell-based; conditions: Staphylococcus aureus
Procedure: as §1

[11] = test system: MRSA NRS 119; test: MIC, Gram-positive panel; format: cell-based; conditions: Staphylococcus aureus
Procedure: as §1

[12] = test system: Enterococcus faecium ATCC 700221 (VRE); test: MIC, Gram-positive panel; format: cell-based
Procedure: as §1

[13] = test system: Enterococcus faecalis ATCC 51299 (VRE); test: MIC, Gram-positive panel; format: cell-based
Procedure: as §1

[14] = test system: Staphylococcus aureus NRS384 (MRSA USA300); test: Initial MIC screening, broth microdilution (CLSI); format: cell-based; conditions: for MIC: Staphylococcus aureus NRS384 (MRSA USA300), broth microdilution, visual reading
Procedure: Method: The minimum inhibitory concentration (MIC) of the compounds 1-187, and control antibiotics (vancomycin, linezolid) was determined using the broth microdilution method against methicillin-resistant Staphylococcus aureus (MRSA) USA 300 using the broth microdilution method according to the guidelines outlined by the Clinical and Laboratory Standards Institute (CLSI). MRSA strain was cultivated on Tryptic soy agar plates and let grow for 24 hours at 37° C. under aerobic conditions. Bacterial suspension equivalent to 0.5 McFarland standard was prepared and diluted in cation-adjusted Mueller-Hinton broth (CAMHB) to attain a bacterial concentration of 5×10^5 CFU/ml and seeded in 96-well plates. The desired concentrations of each drug and compound were added in the first row of the 96-well plates and serially diluted to achieve a concentration gradient from 64 μg/ml to 0.5 μg/mL.

[15] = test system: MRSA USA 400; test: Time-kill assay; format: cell-based, Staphylococcus aureus; conditions: 5×MIC; for time required for complete eradication of the bacterial count: MRSA USA 400, 24-hour incubation
Procedure: In order to the mode of killing of methylene lactone compounds, a time kill assay was performed against MRSA USA 400 as described previously. MRSA USA400 cells in logarithmic growth phase (OD600˜1.00) were diluted to 6.03×10^6 colony-forming units (CFU/mL) and exposed to concentrations equivalent to 5×MIC (in triplicate) of 148, 149, 151, 155, 158 and vancomycin in Tryptic soy broth. Aliquots (100 μL) were collected from each treatment after 0, 2, 4, 6, 8, 12, and 24 hours of incubation at 37° C. and subsequently serially diluted in PBS. Bacteria were then transferred to Tryptic soy agar plates and incubated at 37° C. for 18-20 hours before viable CFU/mL was determined (FIG. 1).
DMSO (solvent for the compounds) served as a negative control and vancomycin served as a control drug. The error bars represent standard deviation values obtained from triplicate samples used for each compound/antibiotic studied.

[16] = test system: total proteases production in MRSA USA300; test: Inhibition of staphylococcal total proteases production, skimmed milk method; format: cell-based, Staphylococcus aureus; conditions: MRSA USA300, 0.25×MIC, untreated = 100%
Procedure: The modified skimmed milk method was utilized to investigate the protease inhibitory activities of BHS compounds as described previously. In brief, overnight culture of MRSA300 in TSB, with and without subinhibitory concentrations of compounds (in triplicate), was centrifuged at 14000×g for 10 minutes. Then, a total volume of 500 μL of culture supernatant was incubated with 1 mL skimmed milk (1.25%) at 37° C. for 1 hour. Afterwards, the OD600 was measured to indicate the degree of clearance of skimmed milk. Higher OD values indicate lower proteolytic activity and greater protease inhibitory activity.
FIG. 4. Influence of BHS compounds on the staphylococcal total protease production. OD600 was measured following overnight culturing of MRSA USA300 in TSB in presence and absence of 0.25×MIC of 148, 149, 155, 158 and vancomycin followed by incubation of supernatants with skim milk for 1 hour at 37° C. The Data are presented as percent production (means±standard deviation). DMSO (the solvent for the compounds that served as a negative control). Vancomycin served as the control antibiotic. The values represent an average (means±standard deviation) of four samples analyzed for each compound/antibiotic. Error bars represent standard deviation values. An asterisk (*) denotes statistical significance (P<0.05) between results for compounds 148, 149, 155, 158 and vancomycin analyzed via unpaired t test ([…]).

[17] = test system: intracellular MRSA USA400 inside murine macrophage (J774) cells; test: Clearance of intracellular MRSA in infected J774 macrophages; format: cell-based, Staphylococcus aureus; conditions: 24 hours, J774 infected with MRSA USA400
Procedure: The ability of the compound 148 to reduce the burden of intracellular MRSA was evaluated utilizing previously described methods. Murine macrophage cells (J774) were cultured in Dulbecco's Modified Eagle Medium (DMEM) supplemented with 10% FBS at 37° C. with CO2 (5%). J774 cells were exposed to MRSA USA400 cells at a multiplicity of infection of approximately 10:1. After 1 hour of infection, J774 cells were washed with gentamicin (200 μg/mL) to kill extracellular MRSA. The compounds or vancomycin (at 4×MIC and 8×MIC) were subsequently added to each well (four replicates per test agent). Control cells received DMSO at a concentration equal to that in drug-treated cell samples. After 24 hours-incubation at 37° C. with 5% CO2, the test agents were removed. J774 cells were washed and subsequently lysed using 0.1% Triton-X. The solution was serially diluted in phosphate-buffered saline and transferred to TSA plates in order to determine viable MRSA CFU inside the J774 cells. Plates were incubated at 37° C. for 18-22 hour before counting viable CFU/mL. Statistical significance was assessed with two-way ANOVA, with post hoc Dunnet's multiple comparisons test (P<0.05), utilizing GraphPad Prism 6.0 (GraphPad Software, La Jolla, Calif.).
FIG. 6. Examination of the activity of compounds 148 on the clearance of intracellular MRSA present inside infected murine macrophage (J774) cells. […] Data were analyzed via two-way ANOVA, with post hoc Dunnet's multiple comparisons test (P<0.05), utilizing GraphPad Prism 6.0 (GraphPad Software, La Jolla, Calif.). Asterisks (*) represent significant difference between treatment of J774 cells with compound 148 in comparison to vancomycin.

[18] = S. aureus NRS 107, read-out: MIC
[19] = S. pneumoniae ATCC 51916, read-out: MIC
[20] = S. aureus ATCC 6538, read-out: MIC
[21] = Methicillin-resistant S. epidermidis NRS101, read-out: MIC
[22] = Methicillin-resistant S. pneumoniae ATCC 700677, read-out: MIC
[23] = Enterococcus faecium ATCC 700221 (VRE), read-out: MIC
[24] = Enterococcus faecalis ATCC 51299 (VRE), read-out: MIC

| Compound | MIC [1, 18] [µg/mL] | MIC ([2]; VRSA 12, read-out: MIC) [µg/mL] | MIC ([3]; MRSA NRS 385, read-out: MIC) [µg/mL] | MIC [4, 19] [µg/mL] | MIC ([5]; VRSA 10, read-out: MIC) [µg/mL] | MIC ([6]; MRSA NRS 386, read-out: MIC) [µg/mL] | MIC [7, 20] [µg/mL] | MIC [8, 21] [µg/mL] | MIC [9, 22] [µg/mL] | MIC ([10]; MRSA NRS 123, read-out: MIC) [µg/mL] | MIC ([11]; MRSA NRS 119, read-out: MIC) [µg/mL] | MIC [12, 23] [µg/mL] | MIC [13, 24] [µg/mL] | time required for complete eradication of the bacterial count [15] | total protease production [16] | other results |
| --- | --- | --- | --- | --- | --- | --- | --- | --- | --- | --- | --- | --- | --- | --- | --- | --- |
| C=C(C(=O)OC)C(c1ccc2ccccc2c1)C(O)c1ccc2ccccc2c1 (centres unmarked) [Compound 149] | 1 (≈ 2.61 µM) | 16 (≈ 41.8 µM) | 1 (≈ 2.61 µM) | 4 (≈ 10.5 µM) | 8 (≈ 20.9 µM) | 1 (≈ 2.61 µM) | 1 (≈ 2.61 µM) | 2 (≈ 5.23 µM) | 4 (≈ 10.5 µM) | 1 (≈ 2.61 µM) | 1 (≈ 2.61 µM) | > 64 | > 64 | not able to completely eradicate it after 24 hours | 63% | potency compared with control antibiotic ([14]; MRSA USA300, Table 1 assay): potency comparable to vancomycin; MIC [14]: 2 µg/mL (≈ 5.23 µM); MIC ([14]; Staphylococcus aureus, read-out: MIC): 1 to 2 µg/mL (≈ 2.61 to 5.23 µM); reduction in the bacterial count after 6 hours ([15]; MRSA USA 400, after 6 hours): 3 log10; reduction in the bacterial count after 6 hours (percent) ([15]; MRSA USA 400, after 6 hours): 99.9% |
| CC(=O)NC[C@H]1CN(c2ccc(N3CCOCC3)c(F)c2)C(=O)O1 [linezolid, reference compound] | 1 (≈ 2.96 µM) | 1 (≈ 2.96 µM) | 2 (≈ 5.93 µM) | 2 (≈ 5.93 µM) | 1 (≈ 2.96 µM) | 2 (≈ 5.93 µM) | 2 (≈ 5.93 µM) | 1 (≈ 2.96 µM) | 2 (≈ 5.93 µM) | 2 (≈ 5.93 µM) | > 16 | 1 (≈ 2.96 µM) | 2 (≈ 5.93 µM) |  |  |  |
| CN[C@H](CC(C)C)C(=O)N[C@H]1C(=O)N[C@@H](CC(N)=O)C(=O)N[C@H]2C(=O)N[C@H]3C(=O)N[C@H](C(=O)N[C@H](C(=O)O)c4cc(O)cc(O)c4-c4cc3ccc4O)[C@H](O)c3ccc(c(Cl)c3)Oc3cc2cc(c3O[C@@H]2O[C@H](CO)[C@@H](O)[C@H](O)[C@H]2O[C@H]2C[C@](C)(N)[C@H](O)[C@H](C)O2)Oc2ccc(cc2Cl)[C@H]1O [vancomycin, reference compound] |  |  |  |  |  |  |  |  |  |  |  |  |  | 12 h | ineffective | MIC [1]: 2 µg/mL (≈ 1.38 µM); MIC ([2]; VRSA): > 64 µg/mL; MIC [3]: 1 µg/mL (≈ 0.69 µM); MIC [4]: 2 µg/mL (≈ 1.38 µM); MIC ([5]; VRSA): > 64 µg/mL; MIC [6]: 1 µg/mL (≈ 0.69 µM); MIC [7]: 1 µg/mL (≈ 0.69 µM); MIC ([8]; NRS101): 2 µg/mL (≈ 1.38 µM); MIC [9]: 2 µg/mL (≈ 1.38 µM); MIC [10]: 1 µg/mL (≈ 0.69 µM); MIC [11]: 1 µg/mL (≈ 0.69 µM); MIC ([12]; Enterococcus faecium): > 64 µg/mL; MIC ([13]; Enterococcus faecalis): 32 µg/mL (≈ 22.1 µM); reduction of intracellular MRSA ([17]; 4 μg/mL): not able to reduce; reduction of intracellular MRSA ([17]; 8 μg/mL): not able to reduce |
